pIC50: −log10 of the molar value. One block for each compound: values may come before it.
What was measured:
[1] = biological target: T1, ICAM-1 binding to immobilized Mac-1 (Homo sapiens, UniProt P05107+P11215); assay: Mac-1/ICAM-1 screening assay (solid-phase ELISA); conditions: read-out: Mac-1/ICAM-1 Protein-Protein Assay IC50
T1 construct: made in house; host or cells: transfected 293 cells (Mac-1)
Procedure, shortened: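 Competitive solid-phase ELISA: membrane Mac-1 from transfected 293 cells coated at 3 μg/mL in 20 mM Hepes pH 7.2/0.14 M NaCl/1 mM MnCl2; compounds (0.12 nM-20 μM, 1:4 series) plus 5dICAM-Ig (40 μg/mL, added) 2 h at 37° C. Bound ICAM-Ig detected with HRP anti-human IgG Fc, TMB, A450; IC50 reported.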

[2] = system: cell-surface Mac-1 adhesion to immobilized fibrinogen (HL-60 cells); assay: Mac-1/Fibrinogen cell-based screening assay; set-up: species or system human; conditions: Homo sapiens, HL-60, HL-60 cells; read-out: Mac-1/Fgn Cell based Assay IC50
Procedure, shortened: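 Wells coated with fibrinogen and blocked with PVP. Labeled HL-60 cells (2×10^6 cells/mL in RPMI/0.05% BSA/0.2 mM MnCl2) preincubated with DMSO-diluted compounds for 10 min at 37° C, then left to adhere 30 min at 37° C/5% CO2. Unbound cells washed off with TBS.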

T1 sequence (P05107 23-769, other chains not shown): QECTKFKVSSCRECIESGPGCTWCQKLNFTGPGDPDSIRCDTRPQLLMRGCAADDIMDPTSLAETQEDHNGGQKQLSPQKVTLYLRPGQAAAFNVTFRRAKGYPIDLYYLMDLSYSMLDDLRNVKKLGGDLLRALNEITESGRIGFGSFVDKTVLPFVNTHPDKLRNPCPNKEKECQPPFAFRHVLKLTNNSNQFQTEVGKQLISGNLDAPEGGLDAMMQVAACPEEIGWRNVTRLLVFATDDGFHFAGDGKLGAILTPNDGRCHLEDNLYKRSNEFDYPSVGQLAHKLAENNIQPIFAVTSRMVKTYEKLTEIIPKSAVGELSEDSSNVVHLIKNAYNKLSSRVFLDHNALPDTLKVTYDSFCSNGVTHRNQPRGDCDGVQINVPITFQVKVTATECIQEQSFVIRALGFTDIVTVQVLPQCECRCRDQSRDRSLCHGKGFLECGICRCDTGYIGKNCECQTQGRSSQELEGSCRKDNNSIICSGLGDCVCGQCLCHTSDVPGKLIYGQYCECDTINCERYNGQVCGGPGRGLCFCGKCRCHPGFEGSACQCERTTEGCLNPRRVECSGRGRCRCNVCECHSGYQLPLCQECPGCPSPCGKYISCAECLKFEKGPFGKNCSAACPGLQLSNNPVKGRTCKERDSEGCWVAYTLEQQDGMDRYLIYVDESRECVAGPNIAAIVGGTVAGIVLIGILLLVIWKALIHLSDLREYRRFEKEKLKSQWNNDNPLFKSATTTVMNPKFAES

Compound: Cc1noc(C)c1C(=O)NC[C@H](NC(=O)c1ccc(C(=O)NCc2cccc(O)c2)cc1Cl)C(=O)O [Example 153]
pIC50 [1]: 6.69
pIC50 [2]: 6.09

Compound: CC(=O)Oc1ccccc1C(=O)NC[C@H](NC(=O)c1ccc(C(=O)NCc2cccc(O)c2)cc1Cl)C(=O)O [Example 117]
pIC50 [1]: 7.48
pIC50 [2]: 6.88

Compound: Cc1ccsc1C(=O)NC[C@H](NC(=O)c1ccc(C(=O)NCc2cccc(O)c2)cc1Cl)C(=O)O [Example 159]
pIC50 [1]: 7.89
pIC50 [2]: 7.44

Compound: CC1(C(=O)NC[C@H](NC(=O)c2ccc(C(=O)NCc3cccc(O)c3)cc2Cl)C(=O)O)CCCCC1 [Example 105]
pIC50 [1]: 7.66
pIC50 [2]: 6.82

Compound: O=C(NCc1cccc(O)c1)c1ccc(C(=O)N[C@@H](CNC(=O)c2ccccc2[N+](=O)[O-])C(=O)O)c(Cl)c1 [Example 140]
pIC50 [1]: 7.33
pIC50 [2]: 7.01

Compound: O=C(NCc1cccc(O)c1)c1ccc(C(=O)N[C@@H](CNC(=O)c2ccco2)C(=O)O)c(Cl)c1 [Example 148]
pIC50 [1]: 7.74
pIC50 [2]: 7.12

Compound: O=C(NCc1cccc(O)c1)c1ccc(C(=O)N[C@@H](CNC(=O)c2ccc(Cl)s2)C(=O)O)c(Cl)c1 [Example 157]
pIC50 [1]: 8.11
pIC50 [2]: 7.47

Compound: O=C(CCN1CCCCC1)NC[C@H](NC(=O)c1ccc(C(=O)NCc2cccc(O)c2)cc1Cl)C(=O)O [Example 112]
pIC50 [1]: 7.74
pIC50 [2]: 6.79

Compound: O=C(NCc1cccc(O)c1)c1ccc(C(=O)N[C@@H](CNC(=O)C2CCCCC2)C(=O)O)c(Cl)c1 [Example 104]
pIC50 [1]: 7.60
pIC50 [2]: 7.09

Compound: O=C(NCc1cccc(O)c1)c1ccc(C(=O)N[C@@H](CNC(=O)c2cc(F)c(F)cc2F)C(=O)O)c(Cl)c1 [Example 145]
pIC50 [1]: 7.62
pIC50 [2]: 6.88

Compound: O=C(NCc1cccc(O)c1)c1ccc(C(=O)N[C@@H](CNC(=O)c2ccc[nH]2)C(=O)O)c(Cl)c1 [Example 151]
pIC50 [1]: 7.48
pIC50 [2]: 7.34

Compound: O=C(NCc1cccc(O)c1)c1ccc(C(=O)N[C@@H](CNC(=O)c2ccc(Br)o2)C(=O)O)c(Cl)c1 [Example 150]
pIC50 [1]: 7.68
pIC50 [2]: 7.19

Compound: O=C(NCc1cccc(O)c1)c1ccc(C(=O)N[C@@H](CNC(=O)c2sccc2Br)C(=O)O)c(Cl)c1 [Example 154]
pIC50 [1]: 7.96
pIC50 [2]: 7.24

Compound: O=C(NCc1cccc(O)c1)c1ccc(C(=O)N[C@@H](CNC(=O)C2(c3ccccc3)CCCC2)C(=O)O)c(Cl)c1 [Example 103]
pIC50 [1]: 7.68
pIC50 [2]: 6.91

Compound: O=C(NCc1cccc(O)c1)c1ccc(C(=O)N[C@@H](CNC(=O)c2ccc(Br)s2)C(=O)O)c(Cl)c1 [Example 155]
pIC50 [1]: 7.89
pIC50 [2]: 7.29

Compound: O=C(NCc1cccc(O)c1)c1ccc(C(=O)N[C@@H](CNC(=O)c2sccc2Cl)C(=O)O)c(Cl)c1 [Example 156]
pIC50 [1]: 7.92
pIC50 [2]: 7.19

Compound: O=C(NCc1cccc(O)c1)c1ccc(C(=O)N[C@@H](CNC(=O)c2cc(Br)c(Br)s2)C(=O)O)c(Cl)c1 [Example 158]
pIC50 [1]: 7.70
pIC50 [2]: 7.15

Compound: Cc1ccc(C(=O)NC[C@H](NC(=O)c2ccc(C(=O)NCc3cccc(O)c3)cc2Cl)C(=O)O)s1 [Example 160]
pIC50 [1]: 8.18
pIC50 [2]: 7.96

Compound: NS(=O)(=O)c1ccc(C(=O)NC[C@H](NC(=O)c2ccc(C(=O)NCc3cccc(O)c3)cc2Cl)C(=O)O)cc1 [Example 119]
pIC50 [1]: 7.59
pIC50 [2]: 6.33

Compound: O=C(NCc1cccc(O)c1)c1ccc(C(=O)N[C@@H](CNC(=O)C2CCCC2)C(=O)O)c(Cl)c1 [Example 101]
pIC50 [1]: 7.54
pIC50 [2]: 7.10

Compound: O=C(NCc1cccc(O)c1)c1ccc(C(=O)N[C@@H](CNC(=O)c2ccc([N+](=O)[O-])cc2)C(=O)O)c(Cl)c1 [Example 142]
pIC50 [1]: 7.89
pIC50 [2]: 6.56

Compound: O=C(/C=C/c1cccs1)NC[C@H](NC(=O)c1ccc(C(=O)NCc2cccc(O)c2)cc1Cl)C(=O)O [Example 116]
pIC50 [1]: 7.74
pIC50 [2]: 7.07

Compound: Cc1ccccc1C(=O)NC[C@H](NC(=O)c1ccc(C(=O)NCc2cccc(O)c2)cc1Cl)C(=O)O [Example 137]
pIC50 [1]: 7.66
pIC50 [2]: 7.08

Compound: COc1ccccc1C(=O)NC[C@H](NC(=O)c1ccc(C(=O)NCc2cccc(O)c2)cc1Cl)C(=O)O [Example 134]
pIC50 [1]: 7.59
pIC50 [2]: 6.66

Next, values leading:

pIC50 [1]: 7.64
pIC50 [2]: 7.80
Compound: Nc1cccc(C(=O)NC[C@H](NC(=O)c2ccc(C(=O)NCc3cccc(O)c3)cc2Cl)C(=O)O)c1 [Example 118]

pIC50 [1]: 7.80
pIC50 [2]: 6.92
Compound: COC(=O)c1cccc(C(=O)NC[C@H](NC(=O)c2ccc(C(=O)NCc3cccc(O)c3)cc2Cl)C(=O)O)c1 [Example 136]

pIC50 [1]: 7.96
pIC50 [2]: 7.57
Compound: N#Cc1cccc(C(=O)NC[C@H](NC(=O)c2ccc(C(=O)NCc3cccc(O)c3)cc2Cl)C(=O)O)c1 [Example 126]

pIC50 [1]: 7.57
pIC50 [2]: 6.82
Compound: O=C(NCc1cccc(O)c1)c1ccc(C(=O)N[C@@H](CNC(=O)c2cccc(C(F)(F)F)c2)C(=O)O)c(Cl)c1 [Example 146]

pIC50 [1]: 8.00
pIC50 [2]: 7.49
Compound: O=C(NCc1cccc(O)c1)c1ccc(C(=O)N[C@@H](CNC(=O)c2cccc(I)c2)C(=O)O)c(Cl)c1 [Example 133]

pIC50 [1]: 7.92
pIC50 [2]: 7.77
Compound: O=C(NCc1cccc(O)c1)c1ccc(C(=O)N[C@@H](CNC(=O)c2ccsc2)C(=O)O)c(Cl)c1 [Example 161]

pIC50 [1]: 8.01
pIC50 [2]: 7.92
Compound: O=C(NCc1cccc(O)c1)c1ccc(C(=O)N[C@@H](CNC(=O)c2cccc(F)c2)C(=O)O)c(Cl)c1 [Example 131]

pIC50 [1]: 8.00
pIC50 [2]: 7.77
Compound: Cc1cccc(C(=O)NC[C@H](NC(=O)c2ccc(C(=O)NCc3cccc(O)c3)cc2Cl)C(=O)O)c1 [Example 138]

pIC50 [1]: 8.17
pIC50 [2]: 7.37
Compound: COc1cccc(C(=O)NC[C@H](NC(=O)c2ccc(C(=O)NCc3cccc(O)c3)cc2Cl)C(=O)O)c1 [Example 76, N-[2-chloro-4-[[[(3-hydroxyphenyl)methyl]amino]-carbonyl]benzoyl]-3-(3-methoxybenzoylamino)-L-alanine]

pIC50 [1]: 8.02
pIC50 [2]: 7.33
Compound: O=C(NCc1cccc(O)c1)c1ccc(C(=O)N[C@@H](CNC(=O)c2cccc([N+](=O)[O-])c2)C(=O)O)c(Cl)c1 [Example 141]

pIC50 [1]: 7.64
pIC50 [2]: 7.15
Compound: CN(C)c1cccc(C(=O)NC[C@H](NC(=O)c2ccc(C(=O)NCc3cccc(O)c3)cc2Cl)C(=O)O)c1 [Example 127]

pIC50 [1]: 8.16
pIC50 [2]: 7.70
Compound: O=C(NCc1cccc(O)c1)c1ccc(C(=O)N[C@@H](CNC(=O)c2cccc(Cl)c2)C(=O)O)c(Cl)c1 [Example 123]

pIC50 [1]: 8.05
pIC50 [2]: 7.10
Compound: O=C(NCc1cccc(O)c1)c1ccc(C(=O)N[C@@H](CNC(=O)c2cccc(Br)c2)C(=O)O)c(Cl)c1 [Example 121]

From patent US20040006236A1, “Diaminopropionic acid derivatives” (priority 1999, published 2004)
